One may read the log P as the decadic logarithm of the partition coefficient of the neutral form, usually between octanol and water. High values mean higher lipophilicity, low ones lower lipophilicity. One may read the logP as the decadic logarithm of the partition coefficient of the neutral form, usually between octanol and water.

One data set relates to Musca domestica. Nature of the data set: Musca domestica test. Conditions: application rate 100 ppm; adult houseflies; kill after 2 days. The class given is in vivo. The method in brief: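 First, 10 mg compound was taken up in 0.5 ml DMSO and then brought with water to the required concentration. This was applied with sugar solution to a sponge in vessels holding 10 adult flies; kill was assessed after 2 days.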

The subject of data set [1] is Ctenocephalides felis. Description: Ctenocephalides felis - in vitro contact tests with adult cat fleas. Particulars: application rate 5 μg/cm^2 (=500 g/ha), after 48 h (dead or moribund). The class given is in vivo. The method in brief: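 Efficacy, as share of dead or moribund adult Ctenocephalides felis, read 48 h after placing 5-10 fleas in tubes coated by acetone solution (5 μg/cm^2 at 900 ppm). Incubation horizontal at room temperature, ambient humidity; immobile or uncoordinated fleas scored.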

In the next data set the test system is Amblyomma hebraeum. Description: Amblyomma hebraeum test (tick nymphs, immersion). The format is in vivo. Conditions: application rate 100 ppm; tick nymphs immersed for one minute; kill after 42 days. Here is the method:
(§1) Solvent: dimethyl sulphoxide
To produce an appropriate active ingredient formulation, 10 mg of active ingredient are mixed with 0.5 ml of dimethyl sulphoxide, and the concentrate is diluted with water to the desired concentration.
Tick nymphs (Amblyomma hebraeum) are placed into perforated plastic beakers and immersed in the desired concentration for one minute. The ticks are transferred on filter paper into a Petri dish and stored in a climate-controlled cabinet.
After 42 days, the kill in % is determined. 100% means that all of the ticks have been killed; 0% means that none of the ticks have been killed.

The test system of another data set is Boophilus microplus. Description: Boophilus microplus - injection test. The class given is in vivo. Conditions: application rate 20 μg/animal; injected into engorged adult female ticks; laying of fertile eggs, after 7 days. The method, boiled down:
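DMSO formulation, 1 μl intra-abdominal injection, n=5 engorged adult females; climate-controlled room; score fertile eggs d7, unclear eggs held until larval hatch (~42 d); % efficacy, 100% = no fertile eggs.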

In another data set the test system is Lucilia cuprina. Description: Lucilia cuprina test. The format is in vivo. Particulars: application rate 100 ppm; L1 larvae in minced horsemeat; kill after 2 days. The method, boiled down: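 Mortality (%) of first-instar blowfly larvae, about 20 per vessel, recorded 2 days after exposure to compound-treated minced horsemeat. Compound dissolved in dimethyl sulphoxide, then water-diluted to the desired concentration.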

Data set [2] relates to Ctenocephalides felis. Nature of the data set: Ctenocephalides felis - oral test. The class given is in vivo. Particulars: application rate 100 ppm in citrated cattle blood; adult fleas; kill after 2 days. The method in brief: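 Steps: active ingredient dissolved in dimethyl sulphoxide; blood dilution prepared; fleas (about 20, unfed adults) held in gauze-closed chamber beneath a cylinder of treated blood; feeding via parafilm; kill percentage determined after 2 days.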

A short description of data set [3]: logP determination by HPLC on a reversed-phase column (C18), EEC Directive 79/831 Annex V.A8. The class given is physicochemical. Particulars: for logP^a): HPLC-MS method a), Table I-T3; for log P: HPLC-MS, reversed-phase column (C18).
For data set [4], the system named is Boophilus microplus Parkhurst strain, SP-resistant. Nature of the data set: Boophilus microplus - dip test. The class given is in vivo. Conditions: application rate 100 ppm; dip of engorged adult female ticks; laying of fertile eggs, after 7 days. Here is the method:
Boophilus microplus—Dip Test
Test animals: cattle ticks (Boophilus microplus) Parkhurst strain, SP-resistant
as §1
10 mg of active ingredient are dissolved in 0.5 ml of dimethyl sulphoxide. For the purpose of producing a suitable formulation, the active ingredient solution is diluted with water to the concentration desired in each case.
This active ingredient formulation is pipetted into tubes. 8-10 adult engorged female cattle ticks (Boophilus microplus) are transferred into a further tube with holes. The tube is immersed into the active ingredient formulation, and all the ticks are completely wetted. After the liquid has run out, the ticks are transferred on filter discs into plastic dishes and stored in a climate-controlled room.
Efficacy is assessed after 7 days by laying of fertile eggs. Eggs which are not visibly fertile are stored in a climate-controlled cabinet until the larvae hatch after about 42 days. An efficacy of 100% means that none of the ticks has laid any fertile eggs; 0% means that all the eggs are fertile.

The next data set has as its system Rhipicephalus sanguineus. Description: Rhipicephalus sanguineus - in vitro contact tests with adult brown dog ticks. The format is in vivo. Particulars: application rate 5 μg/cm^2, after 48 h (dead or moribund). Here is the method:
Rhipicephalus sanguineus—In Vitro Contact Tests with Adult Brown Dog Ticks
For the coating of the test tubes, 9 mg of active ingredient are first dissolved in 1 ml of acetone p.a. and then diluted to the desired concentration with acetone p.a. 250 μl of the solution are distributed homogeneously on the inner walls and base of a 25 ml test tube by turning and rocking on an orbital shaker (rocking rotation at 30 rpm for 2 h). With 900 ppm active ingredient solution and internal surface 44.7 cm^2, given homogeneous distribution, an area-based dose of 5 μg/cm^2 is achieved.
After the solvent has evaporated off, the tubes are populated with 5-10 adult dog ticks (Rhipicephalus sanguineus), sealed with a perforated plastic lid and incubated in a horizontal position in the dark at room temperature and ambient humidity. After 48 h, efficacy is determined. To this end, the ticks are knocked to the floor of the tube and incubated on a hotplate at 45-50° C. for not more than 5 min. Ticks which remain motionless on the floor or move in such an uncoordinated manner that they are unable to deliberately avoid the heat by climbing upwards are considered to be dead or moribund.
An efficacy of 100% means that all the ticks were dead or moribund. 0% efficacy means that none of the ticks had been harmed.

In the case of `N#CC1(NC(=O)c2cc(-c3cnn(-c4c(Cl)cc(C(F)(C(F)(F)F)C(F)(F)F)cc4C(F)(F)F)c3)ccc2Cl)CC1` [I-T3-57], the efficacy in the data set with Musca domestica, with Ctenocephalides felis [1], with Amblyomma hebraeum, with Boophilus microplus, in the data set with Lucilia cuprina and in the data set with Ctenocephalides felis [2] was 100% throughout. In data set [4], this molecule came in with an efficacy of 100%. Besides, in data set [3], the “logP^a)” value is 4.3.

Consider `Cc1cc(C(F)(C(F)(F)F)C(F)(F)F)cc(Br)c1-n1cc(-c2ccc(Cl)c(C(=O)NC3CC3)c2)cn1` [I-T3-86], for which the efficacy in the data set with Musca domestica, in the data set on Ctenocephalides felis [1], in the data set with Amblyomma hebraeum, in the data set on Boophilus microplus, in the data set with Lucilia cuprina and in the data set with Ctenocephalides felis [2] was 100% each time. The same molecule had an efficacy in data set [4] of 100%. The “logP^a)” value in [3] is recorded as 4.5.

`N#CC1(NC(=O)c2cc(-c3cnn(-c4c(Cl)cc(C(F)(F)F)cc4Cl)c3)cnc2Cl)CC1` [I-T3-95]: the efficacy (in the data set with Ctenocephalides felis [1]; in the data set on Amblyomma hebraeum; with Boophilus microplus; in the data set with Ctenocephalides felis [2]; in [4]) was 100% in each case. The “log P” value in data set [3] came to 3.1.

For the molecule `CN(C(=O)c1cc(-c2cnn(-c3c(Cl)cc(C(F)(C(F)(F)F)C(F)(F)F)cc3Cl)c2)cnc1Cl)C1CC1` [I-T3-100], the efficacy with Musca domestica, in the data set on Ctenocephalides felis [1], with Amblyomma hebraeum, in the data set on Boophilus microplus, in the data set with Lucilia cuprina and with Ctenocephalides felis [2] was 100% throughout. In addition, the efficacy in [4] came out at 100%. Besides, the “log P” value in data set [3] worked out at 4.4.

Regarding `Cc1cc(C(F)(C(F)(F)F)C(F)(F)F)cc(C)c1-n1cc(-c2cnc(Cl)c(C(=O)N(C)C3CC3)c2)cn1` [I-T3-101], the efficacy in the data set with Musca domestica came to 100%; in the data set with Ctenocephalides felis [1], 100%; in the data set on Amblyomma hebraeum it was 95%; in the data set on Boophilus microplus, 100%; in the data set with Lucilia cuprina, 100%; with Ctenocephalides felis [2], 100%. Moreover, in data set [4], the efficacy was 100%. Also, in data set [3], the “log P” value was 4.4.

Turning to `CN(C(=O)c1cc(-c2cnn(-c3c(Cl)cc(C(F)(C(F)(F)F)C(F)(F)F)cc3Cl)c2)cnc1Cl)C1(C#N)CC1` [I-T3-102], the efficacy came to 100% in the data set with Musca domestica; 100% in the data set on Ctenocephalides felis [1]; 90% in the data set on Amblyomma hebraeum; 100% with Boophilus microplus; 100% with Lucilia cuprina; 100% in the data set with Ctenocephalides felis [2]. In data set [4], this molecule showed an efficacy of 100%. Moreover, the lipophilicity (log P) in [3] turned out to be 4.3.

On to `Cc1cc(C(F)(C(F)(F)F)C(F)(F)F)cc(C)c1-n1cc(-c2cnc(Cl)c(C(=O)N(C)C3(C#N)CC3)c2)cn1` [I-T3-103], for which the efficacy in the data set with Musca domestica is recorded as 100%; in the data set on Ctenocephalides felis [1], 100%; in the data set with Amblyomma hebraeum, 90%; in the data set on Boophilus microplus it was 100%; in the data set on Lucilia cuprina it was 100%; in the data set on Ctenocephalides felis [2], 100%. Moreover, the efficacy in data set [4] stood at 100%. Moreover, in data set [3], the “log P” value turned out to be 4.3.

`Cc1cc(C(F)(C(F)(F)F)C(F)(F)F)cc(C(F)(F)F)c1-n1cc(-c2cnc(Cl)c(C(=O)N(C)C3CC3)c2)cn1` [I-T3-107]: the efficacy with Musca domestica, in the data set on Ctenocephalides felis [1], with Amblyomma hebraeum, with Boophilus microplus, with Lucilia cuprina and in the data set on Ctenocephalides felis [2] was 100% throughout. Besides, the efficacy in data set [4] was 100%. Moreover, the log partition coefficient (log P) in [3] came to 4.5.

In the case of `Cc1cc(C(F)(C(F)(F)F)C(F)(F)F)cc(C(F)(F)F)c1-n1cc(-c2cnc(Cl)c(C(=O)N(C)C3(C#N)CC3)c2)cn1` [I-T3-111], the efficacy is reported as 100% with Musca domestica; 100% in the data set with Ctenocephalides felis [1]; 80% in the data set on Amblyomma hebraeum; 100% in the data set with Boophilus microplus; 100% with Lucilia cuprina; 100% in the data set on Ctenocephalides felis [2]. In [4], this molecule returned an efficacy of 98%. Further, the “log P” value in data set [3] came to 4.4.

For the molecule `CN(C(=O)c1cc(-c2cnn(-c3c(Cl)cc(C(F)(C(F)(F)F)C(F)(F)F)cc3C(F)(F)F)c2)cnc1Cl)C1(C#N)CC1` [I-T3-116], the efficacy in the data set on Musca domestica, in the data set on Ctenocephalides felis [1], in the data set with Amblyomma hebraeum, in the data set with Boophilus microplus, in the data set with Lucilia cuprina and in the data set with Ctenocephalides felis [2] was 100% each time. In [4], the efficacy was determined as 100%. Besides, the “log P” value in [3] stood at 4.3.

For the molecule `O=C(NC1CC1)c1cc(-c2cnn(-c3c(Br)cc(C(F)(C(F)(F)F)C(F)(F)F)cc3C(F)(F)F)c2)cnc1Cl` [I-T3-160], the efficacy in the data set with Musca domestica, in the data set with Ctenocephalides felis [1], in the data set with Rhipicephalus sanguineus, with Boophilus microplus, in the data set on Lucilia cuprina and in the data set on Ctenocephalides felis [2] was 100% each time. In addition, the efficacy in [4] was found to be 100%. Also, the “log P” value in data set [3] is reported as 4.0.

Consider `N#CC1(NC(=O)c2cc(-c3cnn(-c4c(Br)cc(C(F)(C(F)(F)F)C(F)(F)F)cc4C(F)(F)F)c3)cnc2Cl)CC1` [I-T3-165], for which the efficacy in the data set on Musca domestica, with Ctenocephalides felis [1], in the data set on Rhipicephalus sanguineus, in the data set with Boophilus microplus, in the data set on Lucilia cuprina and in the data set on Ctenocephalides felis [2] was 100% throughout. In addition, in data set [4], the efficacy is given as 100%. Also, in data set [3], the “log P” value was 3.9.

For `Cc1cc(C(F)(C(F)(F)F)C(F)(F)F)cc(I)c1-n1cc(-c2ccc(Cl)c(C(=O)NC3CC3)c2)cn1` [I-T3-175], the efficacy in the data set on Musca domestica, with Ctenocephalides felis [1], in the data set with Rhipicephalus sanguineus, with Boophilus microplus, in the data set with Lucilia cuprina and with Ctenocephalides felis [2] was 100% each time. The efficacy in [4] is given as 100%. The lipophilicity (log P) in data set [3] was determined as 4.5.

Turning to `Cc1cc(C(F)(C(F)(F)F)C(F)(F)F)cc(I)c1-n1cc(-c2ccc(Cl)c(C(=O)NC3(C#N)CC3)c2)cn1` [I-T3-176], the efficacy in the data set with Musca domestica, with Ctenocephalides felis [1], in the data set with Rhipicephalus sanguineus, in the data set on Boophilus microplus, in the data set on Lucilia cuprina and in the data set with Ctenocephalides felis [2] was 100% in each case. In data set [4], this molecule yielded an efficacy of 100%. The “log P” value in [3] is 4.4.

With `Cc1cc(C(F)(C(F)(F)F)C(F)(F)F)cc(C(F)(F)F)c1-c1cc(-c2ccc(Cl)c(C(=O)NC3CC3)c2)on1` [I-T22-5], the efficacy with Musca domestica, in the data set with Ctenocephalides felis [1], in the data set with Rhipicephalus sanguineus, in the data set on Boophilus microplus, in the data set with Lucilia cuprina and in the data set on Ctenocephalides felis [2] was 100% in each case. Further, the efficacy in [4] was 100%. Moreover, in [3] (HPLC, reversed-phase C18, acetonitrile/water with formic acid, 55° C.), the logP worked out at 4.9.
